The record followed here is patent publication US8173821B2, “Serotonin and norepinephrine reuptake inhibitor” (Eli Lilly and Company, priority 2009, dated 2012).

Experiment [1] addresses T1, Human dopamine transporter (DAT) (Homo sapiens, UniProt Q01959).
T1 construct: expressed in transfected cells; host or cells: HEK293 (membrane stocks)
The experiment in a line: In vitro transporter affinity assay (SPA radioligand binding), DAT. To be noted: membranes of transfected HEK293 cells, 3H-WIN 35428; read-out: Ki hDAT. The method, then: (§1) Human serotonin transporter (SERT), norepinephrine transporter (NET), or dopamine transporter (DAT) are cloned into a pcDNA3 vector and stably transfected into HEK293 cells. […] Fluoxetine (100 μM) is used to determine non-specific binding, and venlafaxine is used as a positive control. NET membranes are used at a concentration of 8 μg/well in assay buffer containing 50 mM Tris, 300 mM NaCl, and 5 mM KCl (pH 7.4). ^3H-Nisoxetine is used as the tracer, 100 μM desipramine serves as a measure of non-specific binding, and nisoxetine is used as the positive control. For DAT binding assays, the assay buffer is the same as for SERT, membranes are used at 20 μg/well, 100 μM nomifensine is used to determine non-specific binding, ^3H-WIN 35428 (Perkin Elmer) serves as the radiotracer, and nomifensine is used as the positive control. In all cases, 0.5 mg/well of wheat-germ agglutinin scintillation proximity assay beads (WGA-SPA, GE Health Sciences) are used to capture the membranes, and plates are incubated for 3 hours at room temperature. Radioactivity is measured and Ki values calculated using a four-parameter logistic curve fitting program (ActivityBase v5.3.1.22).

Experiment [2] has as its target T2, Human norepinephrine (NET) transporter (Homo sapiens, UniProt P23975).
T2 construct: expressed in transfected cells; host or cells: HEK293
The experiment in a line: In vitro inhibitor activity assay (3H-norepinephrine uptake). The format is cell-based. To be noted: transfected HEK293 cells, read-out: IC50 hNET (norepinephrine reuptake). As for the experimental part:
(§2) Human serotonin (SERT) or norepinephrine (NET) transporters are cloned into a pcDNA3 vector and stably transfected into HEK293 cells. Both assays are modified from methods described by Eshleman et al., J. Pharmacol. Exptl Ther., 289, 877-885 (1999)) and Wall et al., Mol. Pharmacol., 47, 544-550 (1995). Cells are grown on poly-D-lysine coated flasks or 96-well plates in D-MEM/F-12 3:1 (3 part of Dulbecco's Modified Eagle Medium in 1 part of Nutrient Mix F-12 medium) containing 5% fetal bovine serum, 250 μg/mL geneticin, and 20 mM Hepes. Cells are plated at 40,000 cells per well in 200 μL of medium and incubated for 18-24 hours at 37° C. prior to the assay. The assay uptake buffer consists of Krebs-Ringer bicarbonate stock supplemented with 1.26% sodium bicarbonate, 20 mM HEPES, and 100 μM each of pargyline and ascorbic acid. Following a 30 minute pre-incubation with the compound or indatraline (as a positive control), ^3H-serotonin or ^3H-norepinephrine is added for 1 min. and 50 sec. The ^3H-substrate is then removed, and the cells washed 4× with 100 μL of cold uptake buffer using multimek. […] Microscint™ 40 is added to each well and the radioactivity is quantitated for 1 min. per well. Results are analyzed as IC50 values using a four-parameter logistic curve fitting program (ActivityBase v5.3.1.22).

In another experiment the test system is Formalin induced pain. The experiment in a line: Manual formalin test. Particulars: rat. The format is in vivo. As for the experimental part:
The manual formalin test is performed in custom-made Plexiglas boxes approx. 25 cm×25 cm×20 cm in size. A mirror placed at the back of the cage allows the unhindered observation of the formalin injected paw. Rats (Charles River (CRL) Sprague Dawley (SD)) are placed individually in the cubicles at least 30 min. prior to the experiment. All testing is conducted between 08:00 and 14:00 h and the testing room temperature is maintained at 21-23° C. Peripherally administered test compounds are dosed at varying times before the formalin challenge. Formalin (50 μL of a 5% solution in saline) is injected subcutaneously into the dorsal lateral surface of the right hind paw with a 27 gauge needle. Observation starts immediately after the formalin injection. Formalin induced pain is quantified by recording the number of seconds each licking event lasts in 5 min. intervals. The pain scoring is measured for 50 min. after the formalin injection. Two phases of pain behavior are observed as previously described (Wheeler-Aceto, H., Porreca, F. and Cowan, A., The rat paw formalin test: comparison of noxious agents, Pain 40 (1990) 229-238.). The early phase starts immediately after the formalin injection and lasts approximately 5 min., followed by the late phase that starts between minutes 10-15 with a maximum response typically observed around 25-35 min. after the formalin injection. After the 50 min. observation period, animals are sacrificed with CO2.
Of the different scoring parameters reported for the formalin test, the total time spent licking and biting the injected paw is considered to be most relevant. (Abbott et al., The formalin test: scoring properties of the first and second phases of the pain response in rats, Pain 60 (1995) 91-102; Coderre et al., The formalin test: a validation of the weighted-scores method of the behavioral pain rating, Pain 54 (1993) 43-50).) The early phase score is the sum of time spent licking (seconds) from time 0 to 5 min. The late phase score is obtained by adding the total number of seconds spent licking from minute 16 to min. 40 of the observation period. Data are presented as means with standard errors of means (±SEM). Data is evaluated by one-way analysis of variance (ANOVA) and the appropriate contrasts analyzed by Dunnett “t′ test for two sided comparisons. Differences are considered to be significant if the P-value is less than 0.05. (Abbott, supra.; Coderre, supra.; and Wheeler-Aceto, supra.)

Experiment [3] concerns the target T3, Human serotonin transporter (SERT) (Homo sapiens, UniProt P31645).
T3 construct: expressed in transfected cells; host or cells: HEK293 (membrane stocks)
The experiment in a line: In vitro transporter affinity assay (SPA radioligand binding), SERT. To be noted: membranes of transfected HEK293 cells, 3H-citalopram; read-out: Ki hSERT. The method, then:
as §1

Experiment [4] has as its target T4, norepinephrine transporter (Rattus norvegicus, UniProt Q63380).
T4 construct: from tissue; host or cells: rat cortex, in vivo
The experiment in a line: Alpha MMT: monoamine depletion inhibition assay. In kind it is in vivo. To be noted: rat cortex. An excerpt:
DL-Para-chloroamphetamine (PCA) is transported into serotonergic neurons via the neuronal transporter and produces a long-lasting depletion of rat brain serotonin (5-HT) concentrations. Alpha-methyl-m-tyrosine (α-MMT) is a noradrenergic depleting agent that is β-hydroxylated to metaraminol in vivo and actively transported into norepinephrine (NE) neurons via the neuronal transporter producing a decrease in NE levels in rat brain. The depletion of rat brain 5-HT levels by PCA and rat cortical NE concentrations by α-MMT is blocked by agents with 5-HT and NE reuptake inhibitor activity. Compounds of the present invention may be assayed for their activity to prevent the depletion of rat brain 5-HT concentrations by PCA and the depletion of rat cortical NE concentrations by a-MMT in fed and fasted rats in vivo using the following methods.
Male Sprague Dawley rats weighing 160-180 grams are fasted overnight or allowed food ad libidum. […] All compounds are administered at 1 mL/kg. Animals are sacrificed 2 hr. after PCA or α-MMT administration. Tissues are dissected, frozen on dry ice and stored at −70° prior to analysis. […] The data are collected using an EZChrom™ chromatography data system (Scientific Software, San Ramon, Calif.) which calculates peak heights and sample concentrations. Analysis of variance, followed by Tukey's Honestly Significant Difference test post hoc, identifies significant differences between treatment groups (P≦0.05). Doses that antagonized the PCA- or α-MMT-induced depletion of monoamines by 50 percent, (ED50's) are calculated using a best-fit linear regression analysis.

Experiment [5] has as its target T5, Human serotonin (SERT) transporter (Homo sapiens, UniProt P31645).
T5 construct: expressed in transfected cells; host or cells: HEK293
The experiment in a line: In vitro inhibitor activity assay (3H-serotonin uptake). In kind it is cell-based. To be noted: transfected HEK293 cells, read-out: IC50 hSERT (serotonin reuptake). The method, then:
as §2

In experiment [6] the target is T6, Human norepinephrine transporter (NET) (Homo sapiens, UniProt P23975).
T6 construct: expressed in transfected cells; host or cells: HEK293 (membrane stocks)
The experiment in a line: In vitro transporter affinity assay (SPA radioligand binding), NET. To be noted: membranes of transfected HEK293 cells, 3H-nisoxetine; read-out: Ki hNET. The method, then:
as §1

The target of the next experiment is T7, serotonin transporter (Rattus norvegicus, UniProt P31652).
T7 construct: from tissue; host or cells: rat frontal cortex, in vivo
The experiment in a line: In vivo transporter occupancy assay. Particulars: 1 hr. post dosing. As for the experimental part:
Male Sprague-Dawley rats weighing 240-280 gm in groups of three are used to determine serotonin transporter occupancy. Animals are fasted at least 12 hr. before the start of each experiment. Animals are orally administered vehicle or 0.10, 0.33, 1.00, 3.33 or 10.00 mg/kg doses of test compound in 4% Glucose in 25 mM Phosphate buffer, (pH=3.0) containing 0.1, 0.33, 1, 3.33, or 10% CAPTISOL™ (concentration of CAPTISOL™ (%)=dose of test compound (mg/kg)). […] After an additional 40 min., rats are sacrificed via cervical dislocation, and a portion of the frontal cortex is removed and placed on dry ice. An additional control group of three rats is dosed with paroxetine maleate at 12 mg/kg, i.v., followed by N,N-dimethyl-2-(2-amino-4-cyanophenylthio)-benzylamine (10 μg/kg) 1 hr. later.
Tissues are allowed to thaw and then four volumes (w/v) of acetonitrile containing 0.1% formic acid is added. Samples are homogenized using an ultrasonic dismembrator probe and centrifuged for 16 min. at 14,000×g. One volume of the supernatant is added to 3 volumes of water in an autosampler vial and vortexed. Separation is achieved with a Zorbax C18 HPLC column and a mobile phase gradient of from 20% to 90% acetonitrile/water, each with 0.1% formic acid. The total HPLC run time is 3.5 min with an additional 2.0 min re-equilibration time. An API4000 triple quadrupole mass spectrometer (Applied Biosystems, Foster City, Calif., USA) operating in MRM mode is used for detection. The ion transition monitored is 284.1/239.1 m/z for N,N-dimethyl-2-(2-amino-4-cyanophenylthio)-benzylamine.
The level of N,N-dimethyl-2-(2-amino-4-cyanophenylthio)-benzylamine (tracer) in the cortex of vehicle-pretreated animals represents the sum of nonspecific and specific binding and is assigned the value of 0% occupancy (all receptors available to the tracer). The lower level of tracer in animals pretreated with the very high intravenous dose of paroxetine maleate, the positive control group, represents the nonspecific binding and is assigned the value of 100% occupancy (no receptors available to the tracer). Levels of tracer in the cortex following oral administration of test compound are interpolated linearly between these two extremes in order to determine the percent serotonin transporter occupancy. Data are expressed as means±SEM (n=3/group) calculated using Prism version 3.0 (GraphPad Software Inc., San Diego, Calif., USA). The ED80 values are obtained by fitting the data to a sigmoidal curve using nonlinear regression.

T4 sequence (Q63380 1-617): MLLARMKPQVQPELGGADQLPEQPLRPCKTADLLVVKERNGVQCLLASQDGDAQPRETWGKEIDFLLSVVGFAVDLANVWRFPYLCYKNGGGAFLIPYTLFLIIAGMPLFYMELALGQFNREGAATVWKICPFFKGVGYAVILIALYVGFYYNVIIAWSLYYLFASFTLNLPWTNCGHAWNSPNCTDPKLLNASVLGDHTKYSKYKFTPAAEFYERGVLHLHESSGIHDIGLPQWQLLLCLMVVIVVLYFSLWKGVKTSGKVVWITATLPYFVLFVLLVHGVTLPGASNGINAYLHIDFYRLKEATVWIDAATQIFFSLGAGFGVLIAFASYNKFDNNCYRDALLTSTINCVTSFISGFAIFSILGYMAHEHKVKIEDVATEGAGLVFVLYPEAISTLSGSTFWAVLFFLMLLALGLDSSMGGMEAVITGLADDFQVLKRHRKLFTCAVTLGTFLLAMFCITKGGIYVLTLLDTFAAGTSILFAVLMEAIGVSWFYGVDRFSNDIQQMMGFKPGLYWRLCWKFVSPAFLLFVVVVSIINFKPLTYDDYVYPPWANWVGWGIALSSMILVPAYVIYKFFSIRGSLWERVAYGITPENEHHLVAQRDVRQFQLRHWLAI
T7 sequence (P31652 whole entry): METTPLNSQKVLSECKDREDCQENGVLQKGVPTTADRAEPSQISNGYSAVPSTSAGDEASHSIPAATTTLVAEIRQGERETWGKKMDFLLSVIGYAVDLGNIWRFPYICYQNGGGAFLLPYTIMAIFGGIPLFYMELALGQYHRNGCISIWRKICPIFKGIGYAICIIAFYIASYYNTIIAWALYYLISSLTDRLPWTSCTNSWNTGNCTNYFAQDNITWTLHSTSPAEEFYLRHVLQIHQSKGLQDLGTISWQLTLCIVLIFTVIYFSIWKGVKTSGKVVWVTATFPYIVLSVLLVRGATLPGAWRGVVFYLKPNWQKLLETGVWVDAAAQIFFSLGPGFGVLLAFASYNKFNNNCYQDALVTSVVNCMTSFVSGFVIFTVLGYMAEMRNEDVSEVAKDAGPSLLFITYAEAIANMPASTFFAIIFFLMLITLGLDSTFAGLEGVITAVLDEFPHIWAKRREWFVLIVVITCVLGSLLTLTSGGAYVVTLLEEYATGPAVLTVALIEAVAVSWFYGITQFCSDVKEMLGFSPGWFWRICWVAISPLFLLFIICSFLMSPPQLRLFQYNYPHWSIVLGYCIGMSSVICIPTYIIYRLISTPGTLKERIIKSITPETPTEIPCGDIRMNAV
T3 sequence (P31645 whole entry): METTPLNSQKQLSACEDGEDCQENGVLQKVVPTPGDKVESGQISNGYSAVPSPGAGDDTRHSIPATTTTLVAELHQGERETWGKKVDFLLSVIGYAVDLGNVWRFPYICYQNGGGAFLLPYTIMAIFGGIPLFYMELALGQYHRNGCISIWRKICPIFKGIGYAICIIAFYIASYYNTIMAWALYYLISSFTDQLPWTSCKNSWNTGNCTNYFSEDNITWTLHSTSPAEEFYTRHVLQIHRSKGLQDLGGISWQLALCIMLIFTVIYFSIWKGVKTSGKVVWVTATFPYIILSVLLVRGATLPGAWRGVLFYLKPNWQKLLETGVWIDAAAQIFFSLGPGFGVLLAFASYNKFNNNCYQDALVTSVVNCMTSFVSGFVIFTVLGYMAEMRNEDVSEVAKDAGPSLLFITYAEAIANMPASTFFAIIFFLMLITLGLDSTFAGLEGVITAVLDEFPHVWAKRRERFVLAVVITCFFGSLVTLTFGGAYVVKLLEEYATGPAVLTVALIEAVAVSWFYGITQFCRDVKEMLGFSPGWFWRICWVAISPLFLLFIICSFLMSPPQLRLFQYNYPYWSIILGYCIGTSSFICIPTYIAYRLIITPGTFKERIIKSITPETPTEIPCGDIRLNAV
T5 sequence (P31645 whole entry): as above
T2 sequence (P23975 whole entry): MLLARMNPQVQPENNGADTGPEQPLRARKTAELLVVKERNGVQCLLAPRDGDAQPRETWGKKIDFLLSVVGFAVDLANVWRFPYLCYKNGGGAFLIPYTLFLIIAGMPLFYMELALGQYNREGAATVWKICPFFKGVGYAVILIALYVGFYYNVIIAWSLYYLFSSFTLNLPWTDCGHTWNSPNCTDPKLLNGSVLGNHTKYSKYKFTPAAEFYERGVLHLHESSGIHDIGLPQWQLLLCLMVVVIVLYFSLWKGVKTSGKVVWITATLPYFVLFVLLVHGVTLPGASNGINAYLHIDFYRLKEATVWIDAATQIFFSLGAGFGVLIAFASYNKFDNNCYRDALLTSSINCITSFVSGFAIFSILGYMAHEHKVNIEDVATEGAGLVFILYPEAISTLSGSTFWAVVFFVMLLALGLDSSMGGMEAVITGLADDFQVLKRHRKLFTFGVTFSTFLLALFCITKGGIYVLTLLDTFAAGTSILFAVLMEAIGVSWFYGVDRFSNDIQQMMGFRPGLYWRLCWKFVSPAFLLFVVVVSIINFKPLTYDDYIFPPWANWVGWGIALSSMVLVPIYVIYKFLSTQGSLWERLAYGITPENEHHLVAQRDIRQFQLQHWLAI
T6 sequence (P23975 whole entry): as above
T1 sequence (Q01959 whole entry): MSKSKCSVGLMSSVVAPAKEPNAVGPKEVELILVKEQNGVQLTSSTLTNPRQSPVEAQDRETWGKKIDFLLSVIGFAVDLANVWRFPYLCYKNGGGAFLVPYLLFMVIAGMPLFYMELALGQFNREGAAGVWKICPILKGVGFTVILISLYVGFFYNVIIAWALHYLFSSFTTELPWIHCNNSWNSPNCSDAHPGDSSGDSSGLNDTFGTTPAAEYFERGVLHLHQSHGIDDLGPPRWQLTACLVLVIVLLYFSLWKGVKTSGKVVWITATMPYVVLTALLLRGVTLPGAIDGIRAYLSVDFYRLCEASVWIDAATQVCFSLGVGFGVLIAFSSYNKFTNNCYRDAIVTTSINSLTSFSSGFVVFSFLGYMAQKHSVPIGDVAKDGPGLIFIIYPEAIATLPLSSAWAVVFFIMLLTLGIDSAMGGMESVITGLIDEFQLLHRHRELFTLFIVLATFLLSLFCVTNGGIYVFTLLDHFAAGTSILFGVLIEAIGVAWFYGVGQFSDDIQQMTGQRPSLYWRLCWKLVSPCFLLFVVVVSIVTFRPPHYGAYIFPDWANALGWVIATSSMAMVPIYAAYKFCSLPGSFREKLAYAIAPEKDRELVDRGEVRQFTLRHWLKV

The term Ki denotes a dissociation constant, usually derived from enzyme kinetics or from competition with a known ligand. The IC50 is the concentration that gives 50% inhibition. As usually defined, the ED50 is the dose at which the effect has come halfway, by size or by number of responders. The inhibition is the change of the read-out against control, counted positive when it falls. For the compound `COc1ccc(O[C@@H](CC(C)C)[C@H]2CCNC2)c(C)n1.O=C(O)C(O)C(O)C(=O)O` [EXAMPLE 19, (3S)-3-(1-(6-methoxy-2-methyl-3-pyridyloxy)-3-methyl-butyl)-pyrrolidine, L-tartrate (S-2)], the Ki in experiment [1] was found to be 461 ± 72 nM; in experiment [3], 0.199 ± 0.02 nM; in experiment [6], 1.08 ± 0.32 nM. The results for the IC50 in experiment [2] and in experiment [5] were 7.34 ± 1.48 nM and 2.15 ± 0.7 nM, respectively. Further, in the experiment with Formalin induced pain (po, p.o., read-out: ED50 (reduction of pain behavior)), the ED50 was determined as 13.4 mg/kg. Further, the “% reduction in total time licking” value is given as 4.5% in the experiment with Formalin induced pain (1 mg/kg p.o.), 14.4% in the experiment with Formalin induced pain (3 mg/kg p.o.), 38.0% with Formalin induced pain (10 mg/kg p.o.) and 78.4% in the experiment on Formalin induced pain (30 mg/kg p.o.). For the same compound, the inhibition at 3 mg/kg in experiment [4] (po, 3 mg/kg p.o., read-out: % Inhibition (α-MMT induced depletion of norepinephrine)) was 21%. Besides, the inhibition at 10 mg/kg in experiment [4] (po, 10 mg/kg p.o., read-out: % Inhibition (α-MMT induced depletion of norepinephrine)) was 79%. Also, the inhibition at 30 mg/kg in experiment [4] (po, 30 mg/kg p.o., read-out: % Inhibition (α-MMT induced depletion of norepinephrine)) turned out to be 115%. Besides, the “% Inhibition (α-MMT induced depletion of norepinephrine)” value in experiment [4] (0.3 mg/kg p.o.) came out at 7.0%; in experiment [4] (1 mg/kg p.o.) it was 5.6%. At serotonin transporter (po, rat frontal cortex, 0.3 mg/kg p.o.), this compound yielded a receptor occupancy at 0.3 mg/kg of 5.9%. Also, the receptor occupancy at 1 mg/kg at serotonin transporter (po, rat frontal cortex, 1 mg/kg p.o.) turned out to be 25%. The compound further showed a receptor occupancy at 3 mg/kg at serotonin transporter (po, rat frontal cortex, 3 mg/kg p.o.) of 43.3%. The receptor occupancy at 10 mg/kg on serotonin transporter (po, rat frontal cortex, 10 mg/kg p.o.) turned out to be 94%. This compound also returned a receptor occupancy at 30 mg/kg at serotonin transporter (po, rat frontal cortex, 30 mg/kg p.o.) of 106%. Further, the “absolute ED80 (serotonin transporter occupancy)” value on serotonin transporter (rat, p.o.) is given as 7.1 mg/kg.
